Experimental data from US20120220564A1, “SELECTIVE CALCIUM CHANNEL MODULATORS” (Zalicus Pharmaceuticals Ltd., priority 2009, published 2012).
pIC50: −log10 of the molar value.

Key:
[1] = target: T1, α1H (CaV 3.2) (Homo sapiens, UniProt O95180); assay: T-type calcium channel block, whole cell patch clamp; assay type: cell-based; settings: HEK cells, mainly non-inactivated protocol; values above 10,000 nM represented as 10000
T1 construct: expressed in transfected cells; host or cells: HEK 293
Description: (§1) T-type calcium channel blocking activity was assayed in human embryonic kidney cells, HEK 293 (Invitrogen), stably transfected with the T-type calcium channel subunits. Briefly, cells were cultured in Dulbecco's modified eagle medium (DMEM) supplemented with 10% fetal bovine serum, 200 U/ml penicillin, and 0.2 mg/mL streptomycin at 37° C. with 5% CO2. At 85% confluency, cells were split with 0.25% trypsin/1 mM EDTA and plated at 10% confluency on glass coverslips. At 12 hours, the medium was replaced, and the cells stably transfected using a standard calcium phosphate protocol and the appropriate calcium channel cDNA's. Fresh DMEM was supplied, and the cells transferred to 28° C./5% CO2. Cells were incubated for 1 to 2 days prior to whole cell recording.
(§2) Standard patch-clamp techniques were employed to identify blockers of T-type currents. Briefly, previously described HEK cell lines stably expressing human α1G, α1H and α1I T-type channels were used for all the recordings (passage #: 4-20, 37° C., 5% CO2). Whole cell patch clamp experiments were performed using an Axopatch 200B amplifier (Axon Instruments, Burlingame, Calif.) linked to a personal computer equipped with pCLAMP software. Data were analyzed using Clampfit (Axon Instruments) and SigmaPlot 4.0 (Jandel Scientific). To obtain T-type currents, plastic dishes containing semi-confluent cells were positioned on the stage of a ZEISS AXIOVERT S100 microscope after replacing the culture medium with external solution (Table 2). Whole-cell patches were obtained using pipettes (borosilicate glass with filament, O.D.: 1.5 mm, I.D.: 0.86 mm, 10 cm length), fabricated on a SUTTER P-97 puller with resistance values of ˜5 MΩ (Table 3).
(§3) T-type currents were reliably obtained by using two voltage protocols:
(§4) In the non-inactivating protocol, the holding potential is set at −110 mV and with a pre-pulse at −100 mV for 1 second prior to the test pulse at −40 mV for 50 ms. In the inactivation protocol, the pre-pulse is at approximately −85 mV for 1 second, which inactivates about 15% of the T-type channels (Scheme 1).
(§5) Test compounds were dissolved in external solution, 0.1-0.01% DMSO. After ˜10 minutes rest, they were applied by gravity close to the cell using a WPI microfil tubing. The “non-inactivated” pre-pulse was used to examine the resting block of a compound. The “inactivated” protocol was employed to study voltage-dependent block. However, the initial data shown below were mainly obtained using the non-inactivated protocol only. IC50 values are shown for various compounds of the invention in Table 4. […] In Table 4, empty cells indicate that inhibition by the compound was not detected.

[2] = target: T2, α1G (CaV 3.1) (Homo sapiens, UniProt O43497); assay: as above; assay type: cell-based; settings: HEK cells, mainly non-inactivated protocol; values above 10,000 nM represented as 10000
T2 construct: expressed in transfected cells; host or cells: HEK 293
Description: as §1, §2, §3, §4, §5

[3] = tested on: minimal muscular or neurological impairment (rotarod); assay: Mouse rotarod assay; assay type: in vivo, mice
Description: To assess a compound's undesirable side effects (toxicity), animals can be monitored for overt signs of impaired neurological or muscular function. In mice, the rotarod procedure (Dunham and Miya, J. Am. Pharmacol. Assoc. 46:208-209 (1957)) is used to disclose minimal muscular or neurological impairment (MMI). When a mouse is placed on a rod that rotates at a speed of 6 rpm, the animal can maintain its equilibrium for long periods of time. The animal is considered toxic if it falls off this rotating rod three times during a 1-min period.

[4] = tested on: 6 Hz psychomotor seizure; assay: 6 Hz psychomotor seizure model of partial epilepsy; assay type: in vivo, mice; set-up: concentration or dose not given beside the values
Description: Compounds can also be evaluated for the protection against seizures induced by a 6 Hz, 0.2 ms rectangular pulse width of 3 s duration, at a stimulus intensity of 32 mA (CC97) applied to the cornea of male CF1 mice (20-30 g) according to procedures described by Barton et al, “Pharmacological Characterization of the 6 Hz Psychomotor Seizure Model of Partial Epilepsy,” Epilepsy Res. 47(3):217-27 (2001). Seizures are characterised by the expression of one or more of the following behaviours: stun, forelimb clonus, twitching of the vibrissae and Straub-tail immediately following electrical stimulation.

[5] = tested on: Rat SNL tactile allodynia; assay: L5/L6 spinal nerve ligation (SNL) Chung pain model, tactile allodynia (von Frey); assay type: in vivo; settings: for % Antiallodynia (Mean ± SD): 100 mg/kg PO, n = 7-8
Description: The Spinal Nerve Ligation is an animal model representing peripheral nerve injury generating a neuropathic pain syndrome. In this model experimental animals develop the clinical symptoms of tactile allodynia and hyperalgesia. L5/L6 Spinal nerve ligation (SNL) injury was induced using the procedure of Kim and Chung (Kim et al., Pain 50:355-363 (1992)) in male Sprague-Dawley rats (Harlan; Indianapolis, Ind.) weighing 200 to 250 grams.
Anaesthesia was induced with 2% isofluorane in O2 at 2 L/min and maintained with 0.5% isofluorane in O2. Rats were then shaved and aseptically prepared for surgeries. A 2 cm paraspinal incision was made at the level of L4-S2. L4/L5 was exposed by removing the transverse process above the nerves with a small rongeur. The L5 spinal nerve is the larger of the two visible nerves below the transverse process and lies closest to the spine. The L6 spinal nerve is located beneath the corner of the slope bone. A home-made glass Chung rod was used to hook L5 or L6 and a pre-made slip knot of 4.0 silk suture was placed on the tip of the rod just above the nerve and pulled underneath to allow for the tight ligation. The L5 and L6 spinal nerves were tightly ligated distal to the dorsal root ganglion. The incision was closed, and the animals were allowed to recover for 5 days.
Sham control rats underwent the same operation and handling as the experimental animals, but without SNL.
Prior to initiating drug delivery, baseline behavioural testing data is obtained. At selected times after infusion of the Test or Control Article behavioural data can then be collected again.
The assessment of tactile allodynia consisted of measuring the withdrawal threshold of the paw ipsilateral to the site of nerve injury in response to probing with a series of calibrated von Frey filaments (innocuous stimuli). Animals were acclimated to the suspended wire-mesh cages for 30 min before testing. Each von Frey filament was applied perpendicularly to the plantar surface of the ligated paw of rats for 5 sec. A positive response was indicated by a sharp withdrawal of the paw. For rats, the first testing filament is 4.31. Measurements were taken before and after administration of test articles. […] The protocol was repeated until three changes in behaviour were determined (“up and down” method) (Chaplan et al., J. Neurosci. Methods 53:55-63 (1994)). The 50% paw withdrawal threshold was determined as (10^[Xf+kδ])/10,000, where Xf=the value of the last von Frey filament employed, k=Dixon value for the positive/negative pattern, and δ=the logarithmic difference between stimuli. The cut-off values for rats were no less than 0.2 g and no higher than 15 g (5.18 filament); for mice no less than 0.03 g and no higher than 2.34 g (4.56 filament). A significant drop of the paw withdrawal threshold compared to the pre-treatment baseline is considered tactile allodynia.

[6] = tested on: Lamina I/II spinal cord neurons; assay: Lamina assay, current-clamp recordings in spinal cord slices; assay type: cell-based, rat; settings: Lamina I and II neurons
Description: Male Wistar rats (P6 to P9 for voltage-clamp and P15 to P18 for current-clamp recordings) were anaesthetized through intraperitoneal injection of Inactin (Sigma). The spinal cord was then rapidly dissected out and placed in an ice-cold solution protective sucrose solution containing (in mM): 50 sucrose, 92 NaCl, 15 D-Glucose, 26 NaHCO3, 5 KCl, 1.25 NaH2PO4, 0.5 CaCl2, 7 MgSO4, 1 kynurenic acid, and bubbled with 5% CO2/95% O2. The meninges, dura, and dorsal and ventral roots were then removed from the lumbar region of the spinal cord under a dissecting microscope. The “cleaned” lumbar region of the spinal cord was glued to the vibratome stage and immediately immersed in ice cold, bubbled, sucrose solution. For current-clamp recordings, 300 to 350 μm parasagittal slices were cut to preserve the dendritic arbour of lamina I neurons, while 350 to 400 μm transverse slices were prepared for voltage-clamped […] channel recordings. Slices were allowed to recover for 1 hour at 35° C. in Ringer solution containing (in mM): 125 NaCl, 20 D-Glucose, 26 NaHCO3, 3 KCl, 1.25 NaH2PO4, 2 CaCl2, 1 MgCl2, 1 kynurenic acid, 0.1 picrotoxin, bubbled with 5% CO2/95% O2. The slice recovery chamber was then returned to room temperature (20 to 22° C.) and all recordings were performed at this temperature.
Neurons were visualized using IR-DIC optics (Zeiss Axioskop 2 FS plus, Gottingen, Germany), and neurons from lamina I and the outer layer of lamina II were selected based on their location relative to the substantia gelatinosa layer. Neurons were patch-clamped using borosilicate glass patch pipettes with resistances of […] Current-clamp recordings of lamina I/II neurons in the intact slice, the external recording solution was the above Ringer solution, while the internal patch pipette solution contained (in mM): 140 KGluconate, 4 NaCl, 10 HEPES, 1 EGTA, 0.5 MgCl2, 4 MgATP, 0.5 Na2GTP, adjusted to pH 7.2 with 5 M KOH and to 290 mOsm with D-Mannitol (if necessary). […]

T1 sequence (O95180 whole entry): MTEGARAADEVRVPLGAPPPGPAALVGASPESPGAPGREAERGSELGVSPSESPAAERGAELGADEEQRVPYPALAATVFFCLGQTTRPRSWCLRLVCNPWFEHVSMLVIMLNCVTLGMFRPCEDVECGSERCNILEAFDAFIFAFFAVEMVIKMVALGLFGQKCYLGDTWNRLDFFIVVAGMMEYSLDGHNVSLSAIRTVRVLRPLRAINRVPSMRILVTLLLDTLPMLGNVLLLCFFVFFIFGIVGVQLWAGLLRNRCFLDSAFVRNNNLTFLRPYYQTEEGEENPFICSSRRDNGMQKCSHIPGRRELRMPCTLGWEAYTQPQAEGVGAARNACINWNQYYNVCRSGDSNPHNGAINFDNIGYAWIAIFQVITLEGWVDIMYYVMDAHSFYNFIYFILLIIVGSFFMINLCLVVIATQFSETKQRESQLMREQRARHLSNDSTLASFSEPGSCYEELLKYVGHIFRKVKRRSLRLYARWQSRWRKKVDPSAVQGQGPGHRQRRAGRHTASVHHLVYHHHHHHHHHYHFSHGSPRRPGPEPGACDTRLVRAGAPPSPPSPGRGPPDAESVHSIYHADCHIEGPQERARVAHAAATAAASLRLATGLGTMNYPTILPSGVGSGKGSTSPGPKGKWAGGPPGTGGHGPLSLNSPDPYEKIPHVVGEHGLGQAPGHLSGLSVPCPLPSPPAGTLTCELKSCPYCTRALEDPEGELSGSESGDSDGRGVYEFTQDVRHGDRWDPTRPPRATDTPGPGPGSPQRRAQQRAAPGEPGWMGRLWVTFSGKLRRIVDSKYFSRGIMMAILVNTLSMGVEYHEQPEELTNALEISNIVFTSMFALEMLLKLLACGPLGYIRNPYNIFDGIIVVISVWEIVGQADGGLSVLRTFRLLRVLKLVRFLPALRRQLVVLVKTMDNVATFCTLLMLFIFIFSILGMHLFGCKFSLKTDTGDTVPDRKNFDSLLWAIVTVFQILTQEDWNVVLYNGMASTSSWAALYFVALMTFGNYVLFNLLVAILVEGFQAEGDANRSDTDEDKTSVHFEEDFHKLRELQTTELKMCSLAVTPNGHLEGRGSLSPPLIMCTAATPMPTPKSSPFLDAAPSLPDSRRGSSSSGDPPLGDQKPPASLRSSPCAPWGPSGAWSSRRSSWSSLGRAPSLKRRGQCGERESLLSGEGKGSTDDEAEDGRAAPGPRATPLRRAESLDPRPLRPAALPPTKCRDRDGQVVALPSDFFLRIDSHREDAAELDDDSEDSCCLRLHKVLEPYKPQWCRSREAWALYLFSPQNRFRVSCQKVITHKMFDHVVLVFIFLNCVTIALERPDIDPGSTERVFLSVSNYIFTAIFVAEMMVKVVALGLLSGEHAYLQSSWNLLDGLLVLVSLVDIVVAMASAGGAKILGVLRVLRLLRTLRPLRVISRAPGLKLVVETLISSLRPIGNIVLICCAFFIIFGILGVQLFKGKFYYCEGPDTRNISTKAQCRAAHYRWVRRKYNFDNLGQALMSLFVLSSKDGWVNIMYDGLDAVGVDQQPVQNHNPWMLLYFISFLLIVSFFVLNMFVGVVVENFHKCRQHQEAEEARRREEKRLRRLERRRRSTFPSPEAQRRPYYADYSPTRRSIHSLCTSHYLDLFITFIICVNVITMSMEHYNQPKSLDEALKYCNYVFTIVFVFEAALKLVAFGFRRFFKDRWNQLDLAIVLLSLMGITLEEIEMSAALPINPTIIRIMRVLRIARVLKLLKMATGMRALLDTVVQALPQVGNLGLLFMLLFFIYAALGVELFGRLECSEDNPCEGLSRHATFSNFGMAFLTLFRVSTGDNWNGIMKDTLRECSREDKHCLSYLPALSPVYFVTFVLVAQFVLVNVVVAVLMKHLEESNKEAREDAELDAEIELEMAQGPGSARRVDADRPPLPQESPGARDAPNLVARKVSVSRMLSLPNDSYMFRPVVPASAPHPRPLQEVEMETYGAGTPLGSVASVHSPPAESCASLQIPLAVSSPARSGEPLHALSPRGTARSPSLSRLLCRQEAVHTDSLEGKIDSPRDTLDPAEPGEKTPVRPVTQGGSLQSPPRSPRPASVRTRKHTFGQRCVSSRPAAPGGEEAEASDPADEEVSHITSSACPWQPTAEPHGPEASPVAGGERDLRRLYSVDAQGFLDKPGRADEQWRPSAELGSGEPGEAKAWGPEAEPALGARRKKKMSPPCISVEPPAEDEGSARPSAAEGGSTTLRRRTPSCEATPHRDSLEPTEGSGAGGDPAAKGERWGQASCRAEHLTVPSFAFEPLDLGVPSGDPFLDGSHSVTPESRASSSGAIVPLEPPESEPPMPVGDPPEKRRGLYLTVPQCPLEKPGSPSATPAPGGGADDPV
T2 sequence (O43497 whole entry): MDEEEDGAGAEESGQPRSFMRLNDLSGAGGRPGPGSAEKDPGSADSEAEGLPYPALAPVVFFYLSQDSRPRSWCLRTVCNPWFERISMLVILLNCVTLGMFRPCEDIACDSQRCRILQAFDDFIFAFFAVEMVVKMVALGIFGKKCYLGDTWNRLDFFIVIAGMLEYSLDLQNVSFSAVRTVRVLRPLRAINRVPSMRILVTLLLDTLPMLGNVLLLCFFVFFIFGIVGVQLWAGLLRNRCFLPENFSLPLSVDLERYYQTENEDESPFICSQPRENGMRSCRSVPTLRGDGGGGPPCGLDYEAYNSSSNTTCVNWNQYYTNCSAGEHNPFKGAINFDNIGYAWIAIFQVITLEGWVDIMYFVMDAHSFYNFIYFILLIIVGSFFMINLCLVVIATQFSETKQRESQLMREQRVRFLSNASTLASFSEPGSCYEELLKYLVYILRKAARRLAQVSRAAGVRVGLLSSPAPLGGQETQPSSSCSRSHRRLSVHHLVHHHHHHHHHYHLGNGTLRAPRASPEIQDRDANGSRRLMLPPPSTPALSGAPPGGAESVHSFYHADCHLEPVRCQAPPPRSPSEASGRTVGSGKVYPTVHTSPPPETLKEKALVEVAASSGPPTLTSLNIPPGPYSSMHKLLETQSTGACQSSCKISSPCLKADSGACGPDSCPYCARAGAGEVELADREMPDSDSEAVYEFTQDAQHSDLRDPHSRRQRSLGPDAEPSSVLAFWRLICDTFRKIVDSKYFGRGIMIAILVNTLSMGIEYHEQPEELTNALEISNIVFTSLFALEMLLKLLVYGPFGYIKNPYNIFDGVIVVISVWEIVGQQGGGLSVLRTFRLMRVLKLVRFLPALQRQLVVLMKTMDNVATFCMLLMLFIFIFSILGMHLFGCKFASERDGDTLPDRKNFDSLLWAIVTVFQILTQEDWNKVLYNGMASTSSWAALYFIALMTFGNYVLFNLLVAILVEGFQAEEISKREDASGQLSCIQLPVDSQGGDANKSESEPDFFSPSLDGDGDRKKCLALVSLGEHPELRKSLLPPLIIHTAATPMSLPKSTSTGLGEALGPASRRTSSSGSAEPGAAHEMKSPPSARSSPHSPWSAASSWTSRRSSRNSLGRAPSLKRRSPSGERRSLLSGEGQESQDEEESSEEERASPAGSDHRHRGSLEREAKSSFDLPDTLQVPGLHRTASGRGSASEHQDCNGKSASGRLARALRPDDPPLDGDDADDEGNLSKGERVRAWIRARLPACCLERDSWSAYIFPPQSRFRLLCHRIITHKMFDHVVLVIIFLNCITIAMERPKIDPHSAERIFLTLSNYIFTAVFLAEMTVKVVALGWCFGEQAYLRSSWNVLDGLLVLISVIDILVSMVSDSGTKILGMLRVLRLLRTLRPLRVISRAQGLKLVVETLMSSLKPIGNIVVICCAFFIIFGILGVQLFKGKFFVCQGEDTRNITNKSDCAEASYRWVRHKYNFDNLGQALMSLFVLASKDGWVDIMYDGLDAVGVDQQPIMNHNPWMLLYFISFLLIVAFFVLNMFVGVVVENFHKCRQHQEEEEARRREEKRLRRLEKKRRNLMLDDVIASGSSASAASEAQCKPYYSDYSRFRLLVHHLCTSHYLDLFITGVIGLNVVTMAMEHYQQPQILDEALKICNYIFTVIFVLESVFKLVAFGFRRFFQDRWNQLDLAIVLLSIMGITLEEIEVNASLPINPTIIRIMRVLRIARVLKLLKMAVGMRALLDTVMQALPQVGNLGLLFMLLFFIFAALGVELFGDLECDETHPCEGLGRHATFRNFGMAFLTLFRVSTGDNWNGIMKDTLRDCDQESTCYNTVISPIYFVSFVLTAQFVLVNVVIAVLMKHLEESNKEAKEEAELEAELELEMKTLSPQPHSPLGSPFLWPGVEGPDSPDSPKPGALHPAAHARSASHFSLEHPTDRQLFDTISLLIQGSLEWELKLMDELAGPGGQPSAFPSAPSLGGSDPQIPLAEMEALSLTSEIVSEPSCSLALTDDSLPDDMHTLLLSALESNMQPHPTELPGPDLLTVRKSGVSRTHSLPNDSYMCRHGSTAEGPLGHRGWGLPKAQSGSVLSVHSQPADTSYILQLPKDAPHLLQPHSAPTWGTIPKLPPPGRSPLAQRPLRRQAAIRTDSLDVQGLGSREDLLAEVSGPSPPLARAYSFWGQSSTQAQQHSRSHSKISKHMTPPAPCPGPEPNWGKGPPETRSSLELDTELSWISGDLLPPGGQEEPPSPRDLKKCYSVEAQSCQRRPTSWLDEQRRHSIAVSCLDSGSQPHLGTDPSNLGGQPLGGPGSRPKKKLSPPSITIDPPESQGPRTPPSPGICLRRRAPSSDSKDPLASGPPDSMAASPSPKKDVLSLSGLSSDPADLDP

O=C(CC1CCN(C(=O)C2CNCCO2)CC1)Nc1cc(C(F)(F)F)cc(C(F)(F)F)c1 (stereo not shown) [Compound 4, N-(3,5-bis(trifluoromethyl)phenyl)-2-(1-(morpholine-2-carbonyl)piperidin-4-yl)acetamide]
pIC50 [1]: 5.66 | pIC50 [2]: < 5.00 | Rotarod Assay (% impaired) ([3]; 0.25 hr): 25% | Rotarod Assay (% impaired) ([3]; 0.5 hr): 0% | Rotarod Assay (% impaired) ([3]; 1 hr): 75% | Rotarod Assay (% impaired) ([3]; 2 hr): 75% | Rotarod Assay (% impaired) ([3]; 4 hr): 75%

NC1(CC(=O)N2CCC(CC(=O)Nc3cc(C(F)(F)F)cc(C(F)(F)F)c3)CC2)CCCCC1 [Compound 8, 2-(1-(2-(1-aminocyclohexyl)acetyl)piperidin-4-yl)-N-(3,5-bis(trifluoromethyl)phenyl)acetamide]
pIC50 [1]: 6.96 | pIC50 [2]: < 5.00 | Rotarod Assay (% impaired) ([3]; 0.25 hr): 0% | Rotarod Assay (% impaired) ([3]; 0.5 hr): 50% | Rotarod Assay (% impaired) ([3]; 1 hr): 75% | Rotarod Assay (% impaired) ([3]; 2 hr): 100% | Rotarod Assay (% impaired) ([3]; 4 hr): 100% | Epilepsy 6 Hz (% Protected) ([4]; 0.25 hr): 75% | Epilepsy 6 Hz (% Protected) ([4]; 0.5 hr): 75% | Epilepsy 6 Hz (% Protected) ([4]; 1 hr): 67% | Epilepsy 6 Hz (% Protected) ([4]; 2 hr): 100%

CC(C)(CN)C(=O)N1CCC(CC(=O)Nc2cc(C(F)(F)F)cc(C(F)(F)F)c2)C1 (stereo not shown) [Compound 47, 2-(1-(3-amino-2,2-dimethylpropanoyl)pyrrolidin-3-yl)-N-(3,5-bis(trifluoromethyl)phenyl)acetamide]
pIC50 [1]: 5.47 | pIC50 [2]: < 5.00

NC1(CC(=O)N2CCC(O)(CC(=O)Nc3cc(C(F)(F)F)cc(C(F)(F)F)c3)CC2)CCCCC1 [Compound 54, 2-(1-(2-(1-aminocyclohexyl)acetyl)-4-hydroxypiperidin-4-yl)-N-(3,5-bis(trifluoromethyl)phenyl)acetamide]
pIC50 [1]: 7.10 | Rat SNL tactile allodynia (% antiallodynia) ([5]; 1 hr): 41% | Rat SNL tactile allodynia (% antiallodynia) ([5]; 2 hr): 39% | Rat SNL tactile allodynia (% antiallodynia) ([5]; 4 hr): 45% | Epilepsy 6 Hz (% Protected) ([4]; 0.25 hr): 25% | Epilepsy 6 Hz (% Protected) ([4]; 0.5 hr): 75% | Epilepsy 6 Hz (% Protected) ([4]; 1 hr): 75% | Epilepsy 6 Hz (% Protected) ([4]; 2 hr): 75% | Epilepsy 6 Hz (% Protected) ([4]; 4 hr): 100%

O=C(CC1CCN(C(=O)[C@H]2CCCCN2)CC1)Nc1cc(C(F)(F)F)cc(C(F)(F)F)c1 [Compound 74]
% Spike Change Mean [6]: −53%

NC1(CC(=O)N2CCC(NC(=O)Nc3cc(C(F)(F)F)cc(C(F)(F)F)c3)CC2)CCCCC1 [Compound 75]
Rat SNL tactile allodynia (% antiallodynia) ([5]; 1 hr): 5% | Rat SNL tactile allodynia (% antiallodynia) ([5]; 2 hr): 3% | Rat SNL tactile allodynia (% antiallodynia) ([5]; 4 hr): 3%

NCC1(CC(=O)O)CCCCC1 [Gabapentin, gabapentin, reference compound]
% Antiallodynia (Mean ± SD) ([5]; 1 h): 73 ± 35 % | % Antiallodynia (Mean ± SD) ([5]; 2 h): 90 ± 18 % | % Antiallodynia (Mean ± SD) ([5]; 4 h): 15 ± 8% | anti-allodynia performance compared with first study ([5]; second repetition of the study): performed similarly
